Test results: article PMC5615050 (Scientific Reports, 2017)
Where “and” joins values, the source holds several entries; their conditions need not be identical. Equal entries are not always repeated. Where two headings read alike, the source gives them in different places.

Key:
Bac-NA^WT H1N1 = Bac-NA^WT H1N1 (Influenza A virus, UniProt P03470); experiment: biochemical
Wild type H1N1 NA = Wild type H1N1 NA (Influenza A virus, UniProt P03470); experiment: biochemical
Wild type H5N1 NA = Wild type H5N1 NA (Influenza A virus, UniProt Q6DPL2); experiment: biochemical; format: biochemical
Wild type H5N1 NA, sequence (Q6DPL2 whole entry, looked up): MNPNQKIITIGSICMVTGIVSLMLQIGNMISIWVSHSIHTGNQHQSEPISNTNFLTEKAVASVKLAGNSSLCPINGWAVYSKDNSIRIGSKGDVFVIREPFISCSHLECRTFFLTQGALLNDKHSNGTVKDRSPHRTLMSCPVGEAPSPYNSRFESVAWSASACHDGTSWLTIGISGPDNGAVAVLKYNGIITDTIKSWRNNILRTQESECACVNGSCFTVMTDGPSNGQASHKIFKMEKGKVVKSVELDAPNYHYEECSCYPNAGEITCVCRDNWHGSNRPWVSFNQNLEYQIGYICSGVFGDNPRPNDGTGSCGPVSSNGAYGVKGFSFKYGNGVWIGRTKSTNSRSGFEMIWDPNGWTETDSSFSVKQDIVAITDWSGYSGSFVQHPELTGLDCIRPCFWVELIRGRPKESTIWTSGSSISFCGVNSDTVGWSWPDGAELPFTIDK

in vitro = settings: dog
[1] = system: Influenza A virus (A/WSN/33) H1N1; experiment: microbe, parasite or virus in culture; format: cell-based; settings: for IC50: read-out: IC50 H1N1 (concentration to reduce the CPE of the virus by 50%)
NA = settings: cited from earlier work

Bac-NA^WT H1N1, sequence (P03470 whole entry, looked up): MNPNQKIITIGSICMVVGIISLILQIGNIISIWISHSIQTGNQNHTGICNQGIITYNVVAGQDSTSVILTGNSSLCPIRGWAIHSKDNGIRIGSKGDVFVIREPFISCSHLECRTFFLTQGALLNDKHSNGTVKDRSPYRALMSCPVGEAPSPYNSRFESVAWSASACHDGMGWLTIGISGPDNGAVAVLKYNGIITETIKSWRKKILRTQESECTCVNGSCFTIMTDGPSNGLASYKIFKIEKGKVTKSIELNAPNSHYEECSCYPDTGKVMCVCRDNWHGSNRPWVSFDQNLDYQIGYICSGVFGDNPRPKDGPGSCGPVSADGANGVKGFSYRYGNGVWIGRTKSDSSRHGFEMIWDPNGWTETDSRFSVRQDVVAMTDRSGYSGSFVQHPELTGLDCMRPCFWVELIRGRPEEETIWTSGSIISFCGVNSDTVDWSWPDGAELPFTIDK
Wild type H1N1 NA, sequence (P03470 whole entry, looked up): as above

| Structure (SMILES) | IC50 (Bac-NA^WT H1N1) [µM] | IC50 (Wild type H1N1 NA; NA inhibition, IC50 H1N1) [µM] | IC50 (Wild type H5N1 NA) [µM] | CC50 (in vitro) [µM] | IC50 (Wild type H1N1 NA; IC50 Wild type H1N1) | IC50 (Wild type H5N1 NA; read-out: IC50 Wild type H5N1) [µM] | IC50 ([1]; Influenza A virus, MDCK) [µM] | IC50 [1] [µM] | concentration showing consistent blue color (living cells) in CPE assay [1] [µM] | IC50 (NA) [µM] |
| --- | --- | --- | --- | --- | --- | --- | --- | --- | --- | --- |
| CC12CCC(O)CC1CCC1C2CC(O)C2(C)C(C3=CC(=O)OC3)CCC12O (stereo not drawn) [BPR1P0007S0] | 1.79 ± 0.01 | 36.5 ± 5.02 | 2.49 ± 1.43 |  |  |  |  |  |  |  |
| CC12CCC(O)CC1CCC1C2CCC2(C)C(C3=CC(=O)OC3)CCC12O (stereo not drawn) [BPR1P0008S0] | 2 | 31.4 ± 7.33 | 2.56 ± 0.2 |  |  |  |  |  |  |  |
| O=C(Nc1ccc2c(O)cc(S(=O)(=O)O)cc2c1)Nc1ccc2c(O)cc(S(=O)(=O)O)cc2c1 [NSC45174] |  |  | 16.7 ± 1.67 | > 100 | < 10 µM and 5.29 µM | < 20 | 36.5 | 36.5 ± 1.19 |  |  |
| O=C(Nc1ccc2c(O)c(/N=N/c3ccc4c(O)cc(S(=O)(=O)O)cc4c3)c(S(=O)(=O)O)cc2c1)c1ccccc1 [NSC45609] |  |  | 13 ± 0.78 | > 100 | < 10 µM and 3.67 µM | < 20 | 16.5 | 16.5 ± 0.63 |  |  |
| CC1OC(OC2CC(O)C3(CO)C4C(O)CC5(C)C(C6COC(O)C6)CCC5(O)C4CCC3(O)C2)C(O)C(O)C1O (stereo not drawn) [BPR1P0003S0] | 2.18 ± 0.03 | 37.3 ± 13.4 | 2.62 ± 0.96 |  |  |  |  |  |  |  |
| Nc1ccc2c(O)c(/N=N/c3ccc4c(O)cc(S(=O)(=O)O)cc4c3)c(S(=O)(=O)O)cc2c1 [NSC162535] |  |  | 18.7 ± 1.89 | > 100 | < 10 µM and 4.49 µM | < 20 | 61.5 | 61.45 ± 0.17 | ≥ 50 |  |
| CCC(CC)O[C@@H]1C=C(C(=O)O)C[C@H](N)[C@H]1NC(C)=O [GS4071, oseltamivir carboxylate, reference compound] |  |  |  |  |  |  |  | 0.02 ± 0.0031 |  | […] |
